Results reported in the Bradley open melting point set (2014).
Several values for one entry are separate records, joined by “and”; a condition that tells them apart may be missing. Equal entries are not always repeated. Structures can show the parent of a compound that is named as a salt.

Row | SMILES | melting point
1 | NC1CCCC1 [cyclopentylamine] | -85 °C
2 | O=C(O)C1CC1 [cyclopropanecarboxylic acid] | 18 °C and 18.5 °C and 16.8 °C
3 | C#C[C@]5(O)CC[C@H]4[C@H]3[C@@H]([C@@]2(/C(=C\c1oncc1C2)CC3)C)CC[C@@]45C [danazol] | 225 °C
4 | Nc1ccc(S(=O)(=O)c2ccc(N)cc2)cc1 [dapsone] | 176 °C
5 | CCCCCCCCCC(=O)O [decanoic acid] | 31 °C
6 | CCCCCCCCCC(=O)O [decanoic_acid] | 32 °C
7 | C[C@]12CC[C@H]3[C@@H](CCC4=CC(=O)CC[C@@]43C)[C@@H]1CC[C@@H]2C(=O)CO [deoxycorticosterone] | 142 °C
8 | C[C@@H]1C[C@H]2[C@@H]3CCC4=CC(=O)C=C[C@]4(C)[C@@]3(F)[C@@H](O)C[C@]2(C)[C@@]1(O)C(=O)CO [dexamethasone] | 263 °C
9 | CCCCS(=O)CCCC [di-n-butyl sulfoxide] | 33 °C
10 | CCCCNCCCC [di-n-butylamine] | -62 °C
11 | CCCCCCCCCCCCSCCCCCCCCCCCC [di-n-dodecyl sulfide] | 40 °C
12 | CCCOCCC [di-n-propyl ether] | -122 °C
13 | C=CCSCC=C [diallyl sulfide] | -83 °C
14 | OB(O)c1cccc2c1oc1ccccc12 [dibenzofuran-4-boronic acid] | 289 °C
15 | c1ccc2c(c1)oc1ccccc12 [dibenzofuran] [listing 1 of 2 here] | 81 °C
16 | c1ccc2c(c1)oc1ccccc12 [dibenzofuran] [listing 2 of 2 here] | 82 °C
17 | O=C1c2ccccc2CCc2ccccc21 [dibenzosuberone] | 33 °C
18 | c1ccc(CNCc2ccccc2)cc1 [dibenzylamine] | -26 °C
19 | O=C(O)C(Cl)Cl [dichloroacetic acid] | 10 °C
20 | C[Si](C)(Cl)Cl [dichlorodimethylsilane] | -76 °C
21 | ClCCl [dichloromethane] | -95 °C
22 | ClB(Cl)c1ccccc1 [dichlorophenylborane] | 7 °C

Row | SMILES | melting point
23 | C1CCC(NC2CCCCC2)CC1 [dicyclohexylamine] | -2 °C
24 | CCOCOCC [diethoxymethane] | -66 °C
25 | CCOC(=O)C(NC(C)=O)C(=O)OCC [diethyl acetamidomalonate] | 98 °C
26 | CCOC(=O)/C=CC(=O)OCC [diethyl maleate] | -11 °C
27 | CCOC(=O)C(=O)OCC [diethyl oxalate] | -40 °C
28 | CCOC(=O)C(C(=O)OCC)c1ccccc1 [diethyl phenylmalonate] | 16 °C
29 | CCOC(=O)CCCCC(=O)OCC [diethyl_adipate] | -18 °C
30 | CCOC(=O)/C=C/C(=O)OCC [diethyl_fumarate] | 2 °C
31 | O=C(C=C/C(=O)OCC)OCC [diethyl_maleate] | -10 °C
32 | CCOCCOCCOCC [diethylene glycol diethyl ether] | -44 °C
33 | CCCCOCCOCCO [diethylene glycol mono-n-butyl ether] | -68 °C
34 | ICI [diiodomethane] | 6 °C
35 | CC(C)OC(C)C [diisopropyl_ether] | -86 °C
36 | CC1(C)CC(=O)CC(=O)C1 [dimedone] | 148 °C
37 | COC(=O)c1[nH]c(C(=O)OC)c(O)c1O [dimethyl 3,4-dihydroxypyrrole-2,5-dicarboxylate] | 211 °C
38 | COC(=O)OC [dimethyl carbonate] | 4 °C
39 | COC(=O)/C=C/C(=O)OC [dimethyl fumarate] | 104 °C
40 | COC(=O)CCCCCCCCC(=O)OC [dimethyl_sebacate] | 30 °C
41 | C[SiH](C)c1ccccc1 [dimethylphenylsilane] | -124 °C
42 | O=S(c1ccccc1)c1ccccc1 [diphenyl sulfoxide] | 71 °C
43 | O=C(O)C(c1ccccc1)c1ccccc1 [diphenylacetic acid] | 147 °C
44 | C(#Cc1ccccc1)c1ccccc1 [diphenylacetylene] [listing 1 of 2 here] | 63 °C

Row | SMILES | melting point
45 | C(#Cc1ccccc1)c1ccccc1 [diphenylacetylene] [listing 2 of 2 here] | 60 °C
46 | CCCCCCCCCCCC=O [dodecanal] | 12 °C
47 | O=C(O)CCCCCCCCCCC(=O)O [dodecanedioic acid] | 129 °C
48 | OC[C@@H](O)[C@H](O)[C@H](O)[C@@H](O)CO [dulcitol] | 189 °C
49 | Clc1ccc(COC(Cn2ccnc2)c2ccc(Cl)cc2Cl)cc1 (stereo not drawn) [econazole] | 87 °C
50 | CNC[C@H](O)c1ccc(O)c(O)c1 [epinephrine] | 212 °C
51 | O=C1CCCCCN1 [epsilon-caprolactam] | 70 °C
52 | O=C1CCCCCO1 [epsilon-caprolactone] | -2 °C
53 | O=C(O)CCCCCCC[C@H](O)[C@H](O)CCCCCCO [erythro-aleuritic acid] | 99 °C
54 | O=Cc1cccc2c1CCOC2=O [erythrocentaurin] | 140 °C
55 | C[C@]12CC[C@@H]3c4ccc(O)cc4CC[C@H]3[C@@H]1C[C@@H](O)[C@@H]2O [estriol] | 282 °C
56 | C[C@]12CC[C@@H]3c4ccc(O)cc4CC[C@H]3[C@@H]1CCC2=O [estrone] [listing 1 of 2 here] | 259 °C
57 | C[C@]12CC[C@@H]3c4ccc(O)cc4CC[C@H]3[C@@H]1CCC2=O [estrone] [listing 2 of 2 here] | 255 °C
58 | CC [ethane] | -183 °C
59 | CCN(CC)C(C)CN1c2ccccc2Sc2ccccc21 (stereo not drawn) [ethopropazine] | 53 °C
60 | CCOC(=O)c1ccc(OC)c(OC)c1 [ethyl 3,4-dimethoxybenzoate] | 44 °C
61 | CCOC(=O)C1=C(C)CC(C)=N1 [ethyl 3,5-dimethylpyrrole-2-carboxylate] | 126 °C
62 | CCOC(=O)CCC(C)C1CCC2C3C(O)C(Br)C4CC(OC(C)=O)CCC4(C)C3CC(OC(C)=O)C12C (stereo not drawn) [ethyl 3,12-bis(acetyloxy)-6-bromo-7-hydroxycholan-24-oate] | 166 °C
63 | CCOC(=O)CCC(C)C1CCC2C3C=CC4CC(OC(C)=O)CCC4(C)C3CC(OC(C)=O)C12C (stereo not drawn) [ethyl 3,12-bis(acetyloxy)chol-6-en-24-oate] | 84 °C
64 | CCOC(=O)c1cc(-c2ccco2)n[nH]1 [ethyl 3-(2-furyl)-1h-pyrazole-5-carboxylate] | 136 °C
65 | CCOC(=O)/C=C/N(C)C [ethyl 3-(dimethylamino)acrylate] | 18 °C
66 | CCOC(=O)/C=C(/C)N [ethyl 3-aminocrotonate] | 32 °C

Row | SMILES | melting point
67 | CCOCCC(=O)OCC [ethyl 3-ethoxypropionate] | -100 °C
68 | CCOC(=O)C1=CN=NC1C (stereo not drawn) [ethyl 3-methyl-1H-pyrazole-4-carboxylate] | 137 °C
69 | CCOC(=O)n1ccn(C)c1=S [ethyl 3-methyl-2-thionoimidazoline-1-carboxylate] | 124 °C
70 | CCOC(=O)c1ccc(N)cc1 [ethyl 4-aminobenzoate] | 90 °C
71 | CCOC(=O)Cc1ccc(O)cc1 [ethyl 4-hydroxyphenylacetate] | 37 °C
72 | CCOC(=O)c1ccc([N+](=O)[O-])o1 [ethyl 5-nitro-2-furoate] | 100 °C
73 | CCOC(C)=O [ethyl acetate] | -84 °C
74 | CCOC(=O)CC(C)=O [ethyl acetoacetate] | -43 °C
75 | C=CC(=O)OCC [ethyl acrylate] | -71 °C
76 | CCOC(=O)c1ccccc1 [ethyl benzoate] | -34 °C
77 | CCCC(=O)OCC [ethyl butyrate] | -93 °C
78 | CCOC(=O)C(C#N)=NO [ethyl isonitrosocyanoacetate] | 130 °C
79 | CCOC(=O)c1ccccn1 [ethyl picolinate] | 2 °C
80 | CCOC(=O)C1c2ccccc2Oc2ccccc21 [ethyl xanthene-9-carboxylate] | 67 °C
81 | CCOC(=O)c1ccc([N+](=O)[O-])cc1 [ethyl_4-nitrobenzoate] | 58 °C
82 | CCOC(=O)CC(C)=O [ethyl_acetoacetate] | -43 °C
83 | CCCC(=O)OCC [ethyl_butyrate] | -93 °C
84 | CCOC=O [ethyl_formate] | -80 °C
85 | CCCCCCC(=O)OCC [ethyl_heptanoate] | -66 °C
86 | CCOC(=O)c1cccc(C#N)c1 [ethyl_m-cyanobenzoate] | 56 °C
87 | C=C [ethylene] | -169 °C
88 | CC(=O)OCCOC(C)=O [ethylene_glycol_diacetate] | -41 °C

Row | SMILES | melting point
89 | N#Cc1ccc(C2CCCc3cncn32)cc1 (stereo not drawn) [fadrozole] | 117 °C
90 | N=C(N)Nc1nc(CSCCC(=N)NS(N)(=O)=O)cs1 [famotidine] | 164 °C
91 | NC(=O)OCC(COC(N)=O)c1ccccc1 [felbamate] | 151 °C
92 | O=C(O)Cc1ccccc1Oc1ccc(Cl)cc1Cl [fenclofenac] | 135 °C
93 | O=C(O)c1ccccc1Nc1cccc(C(F)(F)F)c1 [flufenamic acid] | 125 °C
94 | c1ccc2c(c1)Cc1ccccc1-2 [fluorene] | 116 °C and 115 °C
95 | O=C1OC2(OC=C(c3ccccc3)C2=O)c2ccccc21 (stereo not drawn) [fluorescamine] | 157 °C
96 | O=c1[nH]cc(F)c(=O)[nH]1 [fluorouracil] | 282 °C
97 | CC(C(=O)O)c1ccc(-c2ccccc2)c(F)c1 (stereo not drawn) [flurbiprofen] | 111 °C (2×) and 115 °C and 110 °C
98 | O=C1CN=C(c2ccccc2F)c2cc(Cl)ccc2N1CC1CC1 [flutoprazepam] | 118 °C
99 | NC=O [formamide] | 2 °C
100 | NNC=O [formic acid hydrazide] | 57 °C
101 | c1ccoc1 [furan] | -85 °C
102 | O=Cc1ccco1 [furfuraldehyde] | -36.5 °C
103 | NS(=O)(=O)c1cc(C(=O)O)c(NCc2ccco2)cc1Cl [furosemide] | 206 °C (2×) and 208 °C and 204 °C (2×)
104 | Cl[C@H]1[C@H](Cl)[C@@H](Cl)[C@@H](Cl)[C@H](Cl)[C@H]1Cl [g-bhc(lindane)] | 112 °C
105 | Cc1ccc(C)c(OCCCC(C)(C)C(=O)O)c1 [gemfibrozil] | 61 °C
106 | CC(C)=CCC/C(C)=C/CO [geraniol] | -15 °C
107 | Cc1cc(C(=O)NCCc2ccc(S(=O)(=O)NC(=O)NN3CCCCCC3)cc2)no1 [glisoxepid] | 189 °C
108 | O=CCCCC=O [glutaraldehyde] | -21 °C
